According to patent US6897219B2, “Heteroaryl diazacycloalkanes, their preparation and use” (priority 1997, dated 2005):
Where a name gives a salt, the structure may show the parent alone. Read-outs that look alike come from different tables or passages of the source.

Key:
[1] = target: nAChR formed by the α7 subunit isoform (Rattus norvegicus, UniProt Q05941); assay: biochemical; type: binding
[2] = target: T1, neuronal nicotinic receptors (α4β2 subtype high affinity site) (Rattus norvegicus, UniProt P09483+P12390); assay: In vitro inhibition of 3H-epibatidin binding
T1 construct: The forebrain (÷cerebellum) from a male Wistar rat (150-250 g) is homogenized; from tissue; host or cells: rat forebrain (without cerebellum) membrane homogenate
Description: The high affinity binding site for ^3H-epibatidin is most certainly binding to the α4β2 subtype of nicotinic receptors. The identity of the low affinity site is still unknown; does it represent a second nicotinic receptor or a second site in the same receptor.
Tissue preparation: Preparations are performed at 0-4° C. unless otherwise indicated. The forebrain (÷cerebellum) from a male Wistar rat (150-250 g) is homogenized for 10-20 sec in 20 ml Tris, HCl (50 mM, pH 7.4) using an Ultra-Turrax homogenizer. The tissue suspension is centrifuged at 27,000×g for 10 min. The supernatant is discarded and the pellet is washed three times by centrifugation at 27,000×g for 10 min in 20 ml fresh buffer, and the final pellet is resuspended in fresh buffer (400 ml per g of original tissue) and used for binding assays.
Assay: Aliquots of 2.0 ml homogenate are added to 0.100 ml of test solution and 0.100 ml of ^3H-epibatidin (0.3 nM, final concentration), mixed and incubated for 60 min at room temperature. Non-specific binding is determined using (−)-nicotine (30 μM, final concentration). After incubation the samples are poured directly onto Whatman GF/C glass fibre filters (presoaked in 0.1% PEI for at least 20 min) under suction and immediately washed with 2×5 ml ice-cold buffer. The amount of radioactivity on the filters is determined by conventional liquid scintillation counting. Specific binding is total binding minus non-specific binding.

[3] = target: nAChRs comprised of α4 and β2 subunits (Rattus norvegicus, UniProt P09483+P12390); assay: In vitro inhibition of 3H-cytisine binding
Description: The predominant subtype with high affinity for nicotine is comprised of α4 and β2 subunits. nAChRs of the latter type can selectively be labelled by the nicotine agonist ^3H-cytisine.
Tissue Preparation: Preparations are performed at 0-4° C. unless otherwise indicated. […] The homogenate is centrifuged at 27,000×g for 10 min. The supernatant is discarded and the pellet is resuspended in fresh buffer and centrifuged a second time. The final pellet is resuspended in fresh buffer (35 ml per g of original tissue) and used for binding assays.
Assay: Aliquots of 500 μl homogenate are added to 25 μl of test solution and 25 μl of ^3H-cytisine (1 nM, final concentration), mixed and incubated for 90 min at 2° C. Non-specific binding is determined using (−)-nicotine (100 μM, final concentration). After incubation the samples are added 5 ml of ice-cold buffer and poured directly onto Whatman GF/C glass fibre filters under suction and immediately washed with 2×5 ml ice-cold buffer. The amount of radioactivity on the filters is determined by conventional liquid scintillation counting. Specific binding is total binding minus non-specific binding.

[4] = rat forebrain homogenate, 0.3 nM 3H-epibatidin, 60 min at room temperature, read-out: 3H-epibatidin IC50
[5] = rat cerebral cortex homogenate, 1 nM 3H-cytisine, 90 min at 2° C., read-out: 3H-cytisine IC50

T1 sequence (P09483 31-630): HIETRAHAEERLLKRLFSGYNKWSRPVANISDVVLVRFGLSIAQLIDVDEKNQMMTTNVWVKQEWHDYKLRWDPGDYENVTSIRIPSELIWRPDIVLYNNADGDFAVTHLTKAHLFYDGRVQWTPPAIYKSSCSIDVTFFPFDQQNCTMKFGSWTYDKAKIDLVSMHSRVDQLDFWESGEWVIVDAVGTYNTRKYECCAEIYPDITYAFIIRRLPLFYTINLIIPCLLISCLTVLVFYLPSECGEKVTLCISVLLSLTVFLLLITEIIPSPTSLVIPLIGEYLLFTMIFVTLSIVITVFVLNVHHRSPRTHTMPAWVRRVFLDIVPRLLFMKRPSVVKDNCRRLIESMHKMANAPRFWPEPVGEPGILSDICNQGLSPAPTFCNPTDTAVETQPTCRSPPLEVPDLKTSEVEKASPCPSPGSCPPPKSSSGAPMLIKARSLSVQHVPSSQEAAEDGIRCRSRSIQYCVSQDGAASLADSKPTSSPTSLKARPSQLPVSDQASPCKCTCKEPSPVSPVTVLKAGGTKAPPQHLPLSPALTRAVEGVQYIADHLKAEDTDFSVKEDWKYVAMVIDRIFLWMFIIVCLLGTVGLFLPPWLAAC
T1 sequence (P12390 25-500): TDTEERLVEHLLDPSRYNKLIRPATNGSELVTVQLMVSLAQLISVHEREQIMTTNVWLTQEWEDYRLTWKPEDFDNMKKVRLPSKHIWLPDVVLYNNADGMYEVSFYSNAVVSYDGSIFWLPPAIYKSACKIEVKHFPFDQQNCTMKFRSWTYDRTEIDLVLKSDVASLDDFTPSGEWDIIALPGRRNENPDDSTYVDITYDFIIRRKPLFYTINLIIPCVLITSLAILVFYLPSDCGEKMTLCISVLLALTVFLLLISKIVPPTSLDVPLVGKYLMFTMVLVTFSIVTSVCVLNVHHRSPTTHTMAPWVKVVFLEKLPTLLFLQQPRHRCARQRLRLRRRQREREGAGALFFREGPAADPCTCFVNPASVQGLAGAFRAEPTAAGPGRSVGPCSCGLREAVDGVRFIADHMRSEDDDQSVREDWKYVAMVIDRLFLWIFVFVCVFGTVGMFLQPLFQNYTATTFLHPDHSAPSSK
Chain of nAChRs comprised of α4 and β2 subunits (P09483 31-630): as the sequence (P09483 31-630) above
Chain of nAChRs comprised of α4 and β2 subunits (P12390 25-500): as the sequence (P12390 25-500) above
Chain of nAChR formed by the α7 subunit isoform (Q05941 23-502): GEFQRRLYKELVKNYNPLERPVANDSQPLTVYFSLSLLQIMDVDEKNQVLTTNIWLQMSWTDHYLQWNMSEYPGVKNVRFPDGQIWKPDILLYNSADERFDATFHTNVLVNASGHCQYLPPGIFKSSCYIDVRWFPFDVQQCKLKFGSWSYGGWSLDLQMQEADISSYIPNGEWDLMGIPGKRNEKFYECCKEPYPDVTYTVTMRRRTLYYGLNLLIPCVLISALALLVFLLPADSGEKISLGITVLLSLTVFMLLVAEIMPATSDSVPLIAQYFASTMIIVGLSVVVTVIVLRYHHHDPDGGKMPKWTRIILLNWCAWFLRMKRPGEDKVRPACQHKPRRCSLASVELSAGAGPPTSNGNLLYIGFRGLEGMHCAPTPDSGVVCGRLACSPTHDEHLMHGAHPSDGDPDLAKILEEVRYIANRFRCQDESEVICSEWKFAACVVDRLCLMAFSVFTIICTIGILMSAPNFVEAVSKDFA

| Structure (SMILES) | melting point | IC50 [1] | further results |
| --- | --- | --- | --- |
| Cc1ccc(N2CCCNCC2)nn1 (as salt: fumaric acid salt) [Compound 5K, 1-(6-Methyl-3-pyridazinyl)-homopiperazine] | 102 to 105 °C | – | – |
| CN1CCN(c2cncc(-c3ccccc3)c2)CC1 (as salt: fumaric acid salt) [Compound 6A, 4-Methyl-1-(5-phenyl-3-pyridyl)-piperazine] | 179 to 180 °C | – | – |
| COc1cncc(N2CCCNCCC2)c1 (as salt: fumaric acid salt) [Compound 6B, 1-(5-Methoxy-3-pyridyl)-1,5-diazacyclooctane] | 158 to 160 °C | – | – |
| CCCCOc1cncc(N2CCCN(C)CC2)c1 (as salt: fumaric acid salt) [Compound 6E, 1-(5-Butoxy-3-pyridyl)-4-methyl-homopiperazine] | 127 to 129 °C | – | – |
| CC(C)COc1cncc(N2CCCNCC2)c1 (as salt: fumaric acid salt) [Compound 6H, 1-[5-(2-Methyl-propoxy)-3-pyridyl]-homopiperazine] | 121.9 to 123.3 °C | – | – |
| CCOc1cncc(N2CCN(C)CC2)c1 (as salt: fumaric acid salt) [Compound 7A, 1-(5-Ethoxy-3-pyridyl)-4-methyl-piperazine] | 162.2 to 163.7 °C | – | – |
| Clc1ccc(N2CCCNCCC2)nn1 (as salt: fumaric acid salt) [Compound 7B, 1-(6-Chloro-3-pyridazinyl)-1,5-diazacyclooctane] | 176 to 178 °C | – | – |
| Clc1ccc(N2CCCCNCC2)nn1 (as salt: fumaric acid salt) [Compound 8B, 1-(6-Chloro-3-pyridazinyl)-1,4-diazacyclooctane] | 177 to 179 °C | – | – |
| CC(C)COc1cncc(N2CCCN(C)CC2)c1 (as salt: fumaric acid salt) [Compound 8E, 4-Methyl-1-[5-(2-methyl-propyloxy)-3-pyridyl]-homopiperazine] | 145.7 to 146.9 °C | – | – |
| Brc1ccc(N2CCCNCC2)cn1 (as salt: fumaric acid salt) [Compound 8K, 1-(6-Bromo-3-pyridyl)-homopiperazine] | 164 to 166 °C | – | – |
| CCOc1cncc(N2CCN(CC)CC2)c1 (as salt: fumaric acid salt) [Compound 9D, 1-(5-Ethoxy-3-pyridyl)-4-ethyl-piperazine] | 144.8 to 145.9 °C | – | – |
| CN1CCCN(c2cncc(OCC3CC3)c2)CC1 (as salt: fumaric acid salt) [Compound 9E, 1-(5-Cyclopropylmethoxy-3-pyridyl)-4-methyl-homopiperazine] | 160.4 to 161.9 °C | – | – |
| c1ncc(N2CCCNCC2)cc1OCC1CC1 (as salt: fumaric acid salt) [Compound 9H, 1-(5-Cyclopropylmethoxy-3-pyridyl)-homopiperazine] | 154 to 156 °C | – | – |
| CCCOc1cncc(N2CCCN(C)CC2)c1 (as salt: fumaric acid salt) [Compound 10E, 4-Methyl-1-(5-propyloxy-3-pyridyl)-homopiperazine] | 148.8 to 153.5 °C | – | – |
| CCCOc1cncc(N2CCCNCC2)c1 (as salt: fumaric acid salt) [Compound 10H, 1-(5-Propyloxy-3-pyridyl)-homopiperazine] | 156.2 to 157.8 °C | – | – |
| COc1cncc(N2CCCNC(C)CC2)c1 (centres unmarked) (as salt: fumaric acid salt) [Compound 11A] | 137 to 139 °C | – | – |
| CCCCCCOc1cncc(N2CCCN(C)CC2)c1 (as salt: fumaric acid salt) [Compound 11E, 1-(5-Hexyloxy-3-pyridyl)-4-methyl-homopiperazine] | 128.7 to 130.8 °C | – | – |
| CC(C)CCOc1cncc(N2CCCN(C)CC2)c1 (as salt: fumaric acid salt) [Compound 12E, 4-Methyl-1-[5-(3-methyl-butoxy)-3-pyridyl]-homopiperazine] | 130.4 to 131.9 °C | – | – |
| CN1CCCN(c2cncc(OCC3CCCCC3)c2)CC1 (as salt: fumaric acid salt) [Compound 14E, 1-(5-Cyclohexylmethoxy-3-pyridyl)-4-methyl-homopiperazine] | 160.4 to 162 °C | – | – |
| CCCCCOc1cncc(N2CCCN(C)CC2)c1 (as salt: fumaric acid salt) [Compound 15E, 4-Methyl-1-(5-pentyloxy-3-pyridyl)-homopiperazine] | 129 to 130.8 °C | – | – |
| CCCCCCCOc1cncc(N2CCCN(C)CC2)c1 (as salt: fumaric acid salt) [Compound 16E, 1-(5-Heptyloxy-3-pyridyl)-4-methyl-homopiperazine] | 120.2 to 121.8 °C | – | – |

| Structure (SMILES) | melting point | IC50 [1] | further results |
| --- | --- | --- | --- |
| C/C=C/Oc1cncc(N2CCCN(C)CC2)c1 (as salt: fumaric acid salt) [Compound 17E, trans-4-Methyl-1-(5-propyl-1-en-oxy-3-pyridyl)-homopiperazine] | 126 to 128 °C | – | – |
| CN1CCCN(c2cncc(SCc3ccccc3)c2)CC1 (as salt: fumaric acid salt) [Compound 18E, 4-Methyl-1-(5-thiobenzyl-3-pyridyl)-homopiperazine] | 131 to 133 °C | – | – |
| CN1CCCN(c2cncc(-c3cccnc3)c2)CC1 (as salt: fumaric acid salt) [Compound 19E, 4-Methyl-1-[5-(3-pyridyl)-3-pyridyl]-homopiperazine] | 165.5 to 167.5 °C | – | – |
| CN1CCCN(c2cncc(OC3CCCC3)c2)CC1 (as salt: fumaric acid salt) [Compound 25E, 1-(5-Cyclopentyloxy-3-pyridyl)-4-methyl-homopiperazine] | 123 to 125 °C | – | – |
| Oc1cncc(N2CCCNCC2)c1 (as salt: hydrochloric acid salt) | 290 to 300 °C | – | – |
| CN1CCN(c2cccnc2)CC1 [Compound 1A, 4-Methyl-1-(3-pyridyl)-piperazine] | – | 6.8 µM | – |
| c1cncc(N2CCNCC2)c1 [Compound 1B, 1-(3-Pyridyl)-piperazine] | – | > 30 µM | IC50 [2, 4]: 630 nM; IC50 [3, 5]: 130 nM |
| CCOc1cncc(N2CCNCC2)c1 [Compound 1D, 1-(5-Ethoxy-3-pyridyl)piperazine] | – | > 30 µM | IC50 [2]: 1000 nM; IC50 [3, 5]: 500 nM |
| CN1CCCN(c2cccnc2)CC1 [Compound 1E, 4-Methyl-1-(3-pyridyl)-homopiperazine] | – | 4.6 µM | IC50 [2]: 400 nM; IC50 [3, 5]: 150 nM |
| c1cncc(N2CCCNCC2)c1 [Compound 1F, 1-(3-Pyridyl)-homopiperazine] | – | – | IC50 [2]: 5 nM; IC50 [3]: 2 nM |
| COc1cncc(N2CCCNCC2)c1 [Compound 1H, 1-(5-Methoxy-3-pyridyl)-homopiperazine] | – | 3 µM | IC50 [2]: 20 nM; IC50 [3]: 2 nM |
| Clc1ccc(N2CCCNCC2)nn1 [Compound 1K, 1-(6-Chloro-3-pyridazinyl)-homopiperazine] | – | 1.4 µM | IC50 [2]: 60 nM; IC50 [3]: 10 nM |
| c1cnnc(N2CCCNCC2)c1 [Compound 1L, 1-(3-Pyridazinyl)-homopiperazine] | – | 1.6 µM | IC50 [2]: 250 nM; IC50 [3]: 30 nM |
| COc1cncc(N2CCN(C)C2)c1 [Compound 1M, 1-(5-Methoxy-3-pyridyl)-3-methyl-imidazolidine] | – | > 30 µM | IC50 [2]: 8800 nM; IC50 [3]: 590 nM |
| CCCCOc1cncc(N2CCNCC2)c1 [Compound 2D, 1-(5-Butoxy-3-pyridyl)piperazine] | – | > 30 µM | IC50 [2]: 1400 nM; IC50 [3, 5]: 180 nM |
| CN1CCCN(c2cnc3ccccc3c2)CC1 [Compound 2E, 4-Methyl-1-(3-quinolinyl)-homopiperazine] | – | 1.8 µM | IC50 [2]: 4900 nM; IC50 [3, 5]: 340 nM |
| c1ccc2ncc(N3CCCNCC3)cc2c1 [Compound 2F, 1-(3-Quinolinyl)-homopiperazine] | – | 5.9 µM | IC50 [2]: 84 nM; IC50 [3]: 6 nM |
| c1ccc(-c2cncc(N3CCCNCC3)c2)cc1 [Compound 2H, 1-(5-Phenyl-3-pyridyl)-homopiperazine] | – | 37 µM | IC50 [2]: 20 nM; IC50 [3, 5]: 3 nM |
| COc1cncc(N2CCCN(C)CCC2)c1 [Compound 11A] | – | – | IC50 [2, 4]: 1200 nM |
| COc1cncc(N2CCCNC(C)CC2)c1 (centres unmarked) [Compound 11A] | – | > 30 µM | IC50 [3]: 40 nM |
